Active and inactive are the calls of the source.
Legend:
Format in all cases: functional
Details in all cases: Oryctolagus cuniculus
Platelet [1] = experiment: Antiplatelet activity against rabbit platelet assessed as inhibition of collagen-induced platelet aggregation at 100 ug/ml
Platelet [2] = experiment: Antiplatelet activity against rabbit platelet assessed as inhibition of arachidonic acid-induced platelet aggregation at 100 ug/ml
Platelet [3] = experiment: Antiplatelet activity against rabbit platelet assessed as inhibition of platelet activating factor-induced platelet aggregation at 100 ug/ml

Measured: Activity

COc1ccc2c(c1OC)C(CC1(C)C=Cc3c(c4cccc(OC)c4n(C)c3=O)O1)N(C)c1c-2ccc2cc3c(cc12)OCO3 (stereo unspecified)
inactive: all assays above

Oc1cnc2c(ccc3cc4c(cc32)OCO4)c1
inactive: all assays above

Source: ChEMBL document CHEMBL1148054, “Chemical and bioactive constituents from Zanthoxylum simulans” (J Nat Prod, 1994)
